Data as given in paper PMC6105804, “In Vitro and In Vivo Evaluation of APX001A/APX001 and Other Gwt1 Inhibitors against Cryptococcus” (Antimicrobial Agents and Chemotherapy, 2018).

Assays:
[1] = parameters: method as in ref 23 = [23]; 23. Zhao Y , Lee M , Lee A , Paderu P , Park S , Perlin DS 2018 APX001 is effective against echinocandin and multi-drug resistant Candida isolates . Abstr 28th ECCMID , Madrid, Spain .; details: female CD-1 mice, cited from earlier work
[2] = mouse, in vivo; cited from earlier work
[3] = parameters: method as in ref 11, 12 = [11]; 11. Hodges MR , Ople E , Shaw KJ , Mansbach RS , van Marle S , van Hoogdalem E , Kramer W , Wedel P 2017 Phase 1 study to assess safety, tolerability and pharmacokinetics of single and multiple oral d || [12]; 12. Hodges MR , Ople E , Shaw KJ , Mansbach RS , van Marle S , van Hoogdalem E , Wedel P , Kramer W 2017 First-in-human study to assess safety, tolerability and pharmacokinetics of APX001 administered; details: phase 1 studies in healthy volunteers; cited from earlier work
[4] = test system: C. neoformans strain H99; assay: Murine model of cryptococcal meningitis, APX001 alone and with FLC (no ABT); format: in vivo, Cryptococcus neoformans; details: monotherapy 7 days; APX001 390 mg/kg TID oral gavage, FLC 80 mg/kg/day i.p.; male CD-1 mice
Experimental: The efficacies of APX001 and FLC were evaluated in a well-established mouse CM model ([34]). Since Cryptococcus infections can be hematogenously disseminated to other organs, the numbers of CFU in both lung and brain tissue were evaluated. Male CD-1 mice were infected with 5.9 × 10^4 CFU of C. neoformans strain H99 via lateral tail vein injection. Mice were assigned to four groups (n = 10), consisting of (i) treatment with APX001, (ii) treatment with APX001 plus FLC, (iii) treatment with FLC, or (iv) no treatment as a control. Treatment was initiated within 1 h after infection. APX001 was administered by oral gavage at a dose of 390 mg/kg thrice daily (TID), with each dose being administered roughly 8 h apart. […] FLC (2 mg/ml; Sagent Pharmaceuticals, Schaumburg, IL) was administered at a dose of 80 mg/kg/day intraperitoneally (i.p.).
Brain and lung burdens in mice were measured at 7 days postinfection with C. neoformans H99. Male CD-1 mice were infected with 5.9 × 10^4 CFU of C. neoformans strain H99 via the lateral tail vein. Treatment was initiated at about 1 h postinfection and continued for 7 days. APX001 was administered by oral gavage at a dose of 390 mg/kg thrice daily, with each dose being administered roughly 8 h apart. FLC (2 mg/ml; Sagent Pharmaceuticals, Schaumburg, IL) was administered at a dose of 80 mg/kg/day i.p. once daily. Fungal burden data were log10 transformed and evaluated using Kruskal-Wallis tests with Dunn's multiple-comparison test for post hoc analysis (Prism software, v5; GraphPad Software, Inc., San Diego, CA). A P value of ≤0.05 was considered statistically significant (*, P ≤ 0.05; **, P ≤ 0.01; ***, P ≤ 0.001). The 95% confidence interval (CI) is presented.
C. neoformans strain H99 was grown in yeast extract-peptone-dextrose broth at 30°C on a shaker (220 rpm) for 24 h, centrifuged (1,980 relative centrifugal force), and washed twice in phosphate-buffered saline (PBS), resuspended in PBS, and quantified by hemacytometric count. Male CD-1 mice were infected with ∼5 × 10^4 CFU per mouse via lateral tail vein injection of 100 μl. Mice were weighed, and treatment was begun within 1 h after infection. Treatments were administered daily for 7 days. Mice were weighed daily and observed for acute and chronic adverse symptoms. Mice were sacrificed on day 8, and the brain and left lung were homogenized and cultured for quantitative determination of the tissue burden (number of CFU per gram of tissue). Tissues were homogenized for 25 s in 1 ml phosphate-buffered saline using two 6.5-mm steel beads and a Mini-Beadbeater 16 apparatus (Biospec Products, Inc., Bartlesville, OK) and serially diluted in 10-fold steps. Aliquots (100 μl) of homogenate were plated and incubated for 3 to 7 days at 37°C. Fungal burden data were log10 transformed and evaluated using Kruskal-Wallis tests with Dunn's multiple-comparison test for post hoc analysis (Prism software, v5; GraphPad Software, Inc., San Diego, CA). A P value of ≤0.05 was considered statistically significant.

[5] = 100-mg/kg ABT orally 2 h prior to APX001 i.p.

SMILES	fold increase in AUC with ABT [1, 5]	half-life of the active moiety with ABT [1, 5]	half-life of the active moiety without ABT ([1]; APX001 i.p.)	half-life in mice [2]	exposures in humans [3]	half-life in humans [3]	reduction in brain fungal burden vs untreated control [4]	reduction in lung fungal burden vs untreated control [4]
Nc1ncccc1-c1cc(Cc2ccc(COc3ccccn3)cc2)no1 [APX001A]	9 fold	8.8 h	1.3 h	1.40 to 2.75 h	≥ 200 µg·h/mL	60 h	–	–
OC(Cn1cncn1)(Cn1cncn1)c1ccc(F)cc1F [FLC, fluconazole, reference compound]	–	–	–	–	–	–	1.04 log10 CFU/g	1.30 log10 CFU/g
